Measurements taken from patent publication US6235929A, “Tripeptide α-ketoamides” (Georgia Tech Research Corporation, priority 1996, dated 2001).

What was measured:
Half-life in plasma = details: unit inferred, unit assumed
[1] = target: Calpain II from rabbit muscle; experiment: Calpain II inhibition, Suc-Leu-Tyr-AMC hydrolysis; type: biochemical
Experimental: HEPES, heparin, and A23187 were obtained from Calbiochem. […] Calpain II from rabbit muscle and cathepsin B were purchased from Sigma. Papain was purchased from Calbiochem.
(§1) Peptide α-ketoamides were assayed as reversible enzyme inhibitors. Various concentrations of inhibitors in Me2 SO were added to the assay mixture which contained buffer and substrate. The reaction was started by the addition of the enzyme and the hydrolysis rates were followed spectrophotometrically or fluorimetrically.
(§2) Calpain I from human erythrocytes and calpain II from rabbit were assayed using Suc-Leu-Tyr-AMC [Sasaki et al., J. Biol. Chem. 259, 12489-12494 (1984); incorporated herein by reference], and the AMC (7-amino-4-methylcoumarin) release was followed fluorimetrically (excitation at 380 nm, and emmision at 460 nm). Calpains were assayed in 25 mM Tris pH=8.0, 10 mM CaCl2. Fluorescence was followed using a Gilson FL-1A fluorometer or a Perkin-Elmer 203 Fluorescence spectrometer. Cathepsin B was assayed in 20 mM sodium acetate pH=5.2, 0.5 mM dithiothreitol using Bz-Phe-Val-Arg-p-nitroanilide as substrate. Alternately, cathepsin B was assayed with Z-Arg-Arg-AFC [Barrett and Kirschke, Methods Enzymol. […] Enzymatic hydrolysis rates were measured at various substrate and inhibitor concentrations, and KI values were determined by either Lineweaver-Burk plots or Dixon plots. […]

Half-life in liver = type: in vitro ADME; details: unit inferred, unit assumed
cathepsin B = target: T1, cathepsin B (Homo sapiens, UniProt P07858); experiment: Cathepsin B inhibition; type: biochemical
T1 construct: purchased Sigma
Experimental: (§3) HEPES, heparin, and A23187 were obtained from Calbiochem. Suc--Leu--Tyr--AMC and chromogenic substrates were obtained from Sigma Calpain I was purified from human erythrocytes according to the method of Kitahara (Kitahara et al., J. Biochem. 95, 1759-1766) omitting the Blue-Sepharose step. Calpain II from rabbit muscle and cathepsin B were purchased from Sigma. Papain was purchased from Calbiochem.
as §1
as §2, with “spectrometer.” for “spectrometer. Cathepsin B was assayed in 20 mM sodium acetate pH=5.2, 0.5 mM dithiothreitol using Bz-Phe-Val-Arg-p-nitroanilide as substrate. Alternately, cathepsin B was assayed with Z-Arg-Arg-AFC [Barrett and Kirschke, Methods Enzymol.”

[2] = target: T2, Calpain I from human erythrocytes (Homo sapiens, UniProt P07384); experiment: Calpain I inhibition, Suc-Leu-Tyr-AMC hydrolysis; type: biochemical; details: ratio of KI values
T2 construct: Calpain I was purified from human erythrocytes; from tissue; host or cells: human erythrocytes
T2 sequence (P07384 1-714): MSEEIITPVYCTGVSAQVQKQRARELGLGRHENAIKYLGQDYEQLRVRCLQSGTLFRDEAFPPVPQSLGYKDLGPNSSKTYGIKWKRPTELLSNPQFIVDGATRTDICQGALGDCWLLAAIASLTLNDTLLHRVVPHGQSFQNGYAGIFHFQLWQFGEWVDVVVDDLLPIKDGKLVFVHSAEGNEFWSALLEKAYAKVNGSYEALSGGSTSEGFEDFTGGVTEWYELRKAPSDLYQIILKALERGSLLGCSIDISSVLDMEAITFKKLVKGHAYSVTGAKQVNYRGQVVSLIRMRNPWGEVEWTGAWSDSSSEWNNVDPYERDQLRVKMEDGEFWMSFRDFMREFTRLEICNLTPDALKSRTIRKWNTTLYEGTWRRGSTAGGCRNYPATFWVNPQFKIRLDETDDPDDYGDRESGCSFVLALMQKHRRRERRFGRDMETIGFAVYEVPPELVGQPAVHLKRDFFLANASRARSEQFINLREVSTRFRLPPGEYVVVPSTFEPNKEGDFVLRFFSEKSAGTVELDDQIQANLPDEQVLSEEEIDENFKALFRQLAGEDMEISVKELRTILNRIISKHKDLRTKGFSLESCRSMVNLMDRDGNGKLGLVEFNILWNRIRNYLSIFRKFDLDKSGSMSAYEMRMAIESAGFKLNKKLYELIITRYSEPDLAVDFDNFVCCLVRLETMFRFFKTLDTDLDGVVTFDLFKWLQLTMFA
T2 sequence (P04632 1-268 partner): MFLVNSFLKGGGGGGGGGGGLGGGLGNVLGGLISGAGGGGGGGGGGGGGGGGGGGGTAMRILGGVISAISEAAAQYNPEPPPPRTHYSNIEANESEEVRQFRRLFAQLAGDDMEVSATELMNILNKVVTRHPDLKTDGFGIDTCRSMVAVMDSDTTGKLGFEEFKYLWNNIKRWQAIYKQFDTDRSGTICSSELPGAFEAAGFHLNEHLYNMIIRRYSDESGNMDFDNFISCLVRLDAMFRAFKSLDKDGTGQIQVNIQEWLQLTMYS
Experimental: as §3, §1
as §2, with “spectrometer.” for “spectrometer. Cathepsin B was assayed in 20 mM sodium acetate pH=5.2, 0.5 mM dithiothreitol using Bz-Phe-Val-Arg-p-nitroanilide as substrate. Alternately, cathepsin B was assayed with Z-Arg-Arg-AFC [Barrett and Kirschke, Methods Enzymol.”

Compound	t1/2 plasma (Half-life in plasma) [h]	t1/2 liver (Half-life in liver) [h]	further results
CCOC(=O)C(=O)[C@H](CC)NC(=O)[C@H](CC(C)C)NC(=O)[C@H](CC(C)C)NC(=O)c1ccc2ccccc2c1 [2-NapCO-Leu-Leu-Abu-COOEt]	0.417	–	–
CCOC(=O)C(=O)C(CC)NC(=O)C(CC(C)C)NC(=O)C(CC(C)C)NS(=O)(=O)c1ccc2ccccc2c1 (stereo not drawn) [2-NapSO2-Leu-Leu-Abu-COOEt, reference compound]	> 1	–	–
CC[C@H](NC(=O)[C@H](CC(C)C)NC(=O)OCc1ccccc1)C(=O)C(=O)NCCc1ccccc1 [Z-Leu-Abu-CONH--(CH2)2 -Ph, Z--Leu--Abu--CONH--(CH2)2 Ph]	–	–	KI Calpain II [1]: best inhibitor
CCC(NC(=O)C(CC(C)C)NC(=O)OCc1ccccc1)C(=O)C(=O)NCc1ccccc1 (stereo not drawn) [Z-Leu-Abu-CONH-Bzl, Z--Leu--Abu--CONH--Bzl]	> 1	> 1	–
CCNC(=O)C(=O)[C@H](CC)NC(=O)[C@H](CC(C)C)NC(=O)OCc1ccccc1 [Z-Leu-Abu-CONH-Et, Z--Leu--Abu--CONH--Et]	> 1	> 1	KI Cath B (cathepsin B): best inhibitor; fold better inhibitor of calpain I than Z--Leu--Phe--CONH--Et [2]: 14 fold
CCC(NC(=O)C(CC(C)C)NC(=O)OCc1ccccc1)C(=O)C(=O)NCC(C)C (stereo not drawn) [Z-Leu-Abu-CONH-iBu, Z--Leu--Abu--CONH--iBu]	> 1	–	–
CCCCNC(=O)C(=O)C(CC)NC(=O)C(CC(C)C)NC(=O)OCc1ccccc1 (stereo not drawn) [Z-Leu-Abu-CONH-nBu, Z--Leu--Abu--CONH--nBu]	> 1	> 1	–
CCCNC(=O)C(=O)[C@H](CC)NC(=O)[C@H](CC(C)C)NC(=O)OCc1ccccc1 [Z-Leu-Abu-CONH-nPr, Z--Leu--Abu--CONH--nPr]	> 1	> 1	–
CCOC(=O)C(=O)[C@H](CC)NC(=O)[C@H](CC(C)C)NC(=O)OCc1ccccc1 [Z-Leu-Abu-COOEt, reference compound]	0.0467	–	–
CCC(NC(=O)C(CC(C)C)NC(=O)OCc1ccccc1)C(=O)C(=O)O (stereo not drawn) [Z-Leu-Abu-COOH, reference compound]	> 1	> 1	–
CCOC(=O)C(=O)C(CCSC)NC(=O)C(CC(C)C)NC(=O)OCc1ccccc1 (stereo not drawn) [Z-Leu-Met-COOEt]	0.133	–	–
CCCCC(NC(=O)C(CC(C)C)NC(=O)OCc1ccccc1)C(=O)C(=O)OCC (stereo not drawn) [Z-Leu-Nle-COOEt, reference compound]	0.0617	–	–
CCCC(NC(=O)C(CC(C)C)NC(=O)OCc1ccccc1)C(=O)C(=O)OCC (stereo not drawn) [Z-Leu-Nva-COOEt, reference compound]	0.0467	–	–
CC(C)C[C@H](NC(=O)OCc1ccccc1)C(=O)N[C@@H](Cc1ccccc1)C(=O)C(=O)NCCc1ccccc1 [Z-Leu-Phe-CONH(CH2)2 Ph, Z--Leu--Phe--CONH--(CH2)2 Ph]	> 1	–	–
CCNC(=O)C(=O)[C@H](Cc1ccccc1)NC(=O)[C@H](CC(C)C)NC(=O)OCc1ccccc1 [Z-Leu-Phe-CONH-Et, Z--Leu--Phe--CONH--Et]	> 1	> 1	–
CC(C)CNC(=O)C(=O)[C@H](Cc1ccccc1)NC(=O)[C@H](CC(C)C)NC(=O)OCc1ccccc1 [Z-Leu-Phe-CONH-iBu, Z--Leu--Phe--CONH--iBu]	> 1	–	–
CCCCNC(=O)C(=O)C(Cc1ccccc1)NC(=O)C(CC(C)C)NC(=O)OCc1ccccc1 (stereo not drawn) [Z-Leu-Phe-CONH-nBu, Z--Leu--Phe--CONH--nBu]	> 1	> 1	–
CCCNC(=O)C(=O)C(Cc1ccccc1)NC(=O)C(CC(C)C)NC(=O)OCc1ccccc1 (stereo not drawn) [Z-Leu-Phe-CONH-nPr, Z--Leu--Phe--CONH--nPr]	> 1	> 1	–
CC(C)CC(NC(=O)OCc1ccccc1)C(=O)NC(Cc1ccccc1)C(=O)C(=O)OCc1ccccc1 (stereo not drawn) [Z-Leu-Phe-COOBz]	0.0317	–	–
CCOC(=O)C(=O)C(Cc1ccccc1)NC(=O)C(CC(C)C)NC(=O)OCc1ccccc1 (stereo not drawn) [Z-Leu-Phe-COOEt, Z--Leu--Phe--COOEt, reference compound]	0.13	–	–
CC(C)CC(NC(=O)OCc1ccccc1)C(=O)NC(Cc1ccccc1)C(=O)C(=O)O (stereo not drawn) [Z-Leu-Phe-COOH, reference compound]	> 1	> 1	–
CCCCOC(=O)C(=O)[C@H](Cc1ccccc1)NC(=O)[C@H](CC(C)C)NC(=O)OCc1ccccc1 [Z-Leu-Phe-COOnBu]	0.128	–	–
